Results as given in patent US20060134102A1, “Lymphotoxin beta receptor agents in combination with chemotherapeutic agents” (Biogen Idec MA Inc., priority 2002, published 2006).
“And” between values parts separate entries of the source, which are not always exact repeats. Equal entries are not always repeated.

System: KM-20L2 human colorectal adenocarcinoma
Assay: KM-20L2 xenograft model: growth of established KM-20L2 human colorectal tumors in athymic nude mice (tumor volume/weight, % T/C, Fa, Combination Index)
Type: in vivo

huCBE11: humanized anti-LT-β-R agonist antibody (LTβ receptor-activating mAb), described in WO 02/30986
Mean Fraction Affected (Fa) (huCBE11 2 mg/kg, Day 9): 0.103 | Mean Fraction Affected/Fraction Unaffected (Fa/Fu) (huCBE11 2 mg/kg, Day 9): 0.115 | Mean Tumor Volume (huCBE11 2 mg/kg, Day 9): 100.3 cubic mm | Mean Tumor Volume Decrease (huCBE11 2 mg/kg, Day 9): 11.5 cubic mm | Mean Fraction Affected (Fa) (huCBE11 2 mg/kg, Day 13): 0.057 | Mean Fraction Affected/Fraction Unaffected (Fa/Fu) (huCBE11 2 mg/kg, Day 13): 0.061 | Mean Tumor Volume (huCBE11 2 mg/kg, Day 13): 162.7 cubic mm | Mean Tumor Volume Decrease (huCBE11 2 mg/kg, Day 13): 9.9 cubic mm | Mean Fraction Affected (Fa) (huCBE11 2 mg/kg, Day 16): 0.119 | Mean Fraction Affected/Fraction Unaffected (Fa/Fu) (huCBE11 2 mg/kg, Day 16): 0.135 | Mean Tumor Volume (huCBE11 2 mg/kg, Day 16): 233.5 cubic mm | Mean Tumor Volume Decrease (huCBE11 2 mg/kg, Day 16): 31.5 cubic mm | Mean Fraction Affected (Fa) (huCBE11 2 mg/kg, Day 20): 0.342 | Mean Fraction Affected/Fraction Unaffected (Fa/Fu) (huCBE11 2 mg/kg, Day 20): 0.521 | Mean Tumor Volume (huCBE11 2 mg/kg, Day 20): 263.7 cubic mm | Mean Tumor Volume Decrease (huCBE11 2 mg/kg, Day 20): 137.3 cubic mm | Mean Fraction Affected/Fraction Unaffected (Fa/Fu) (huCBE11 2 mg/kg, Day 23): 0.554 | Mean Tumor Volume (huCBE11 2 mg/kg, Day 23): 339.2 cubic mm | Mean Tumor Volume Decrease (huCBE11 2 mg/kg, Day 23): 188.0 cubic mm | Mean Fraction Affected (Fa) (huCBE11 2 mg/kg, Day 27): 0.419 | Mean Fraction Affected/Fraction Unaffected (Fa/Fu) (huCBE11 2 mg/kg, Day 27): 0.720 | Mean Tumor Volume (huCBE11 2 mg/kg, Day 27): 388.7 cubic mm | Mean Tumor Volume Decrease (huCBE11 2 mg/kg, Day 27): 279.9 cubic mm | Mean Fraction Affected (Fa) (huCBE11 2 mg/kg, Day 30): 0.449 | Mean Fraction Affected/Fraction Unaffected (Fa/Fu) (huCBE11 2 mg/kg, Day 30): 0.813 | Mean Tumor Volume (huCBE11 2 mg/kg, Day 30): 450.1 cubic mm | Mean Tumor Volume Decrease (huCBE11 2 mg/kg, Day 30): 366.1 cubic mm | Mean Fraction Affected (Fa) (huCBE11 2 mg/kg, Day 34): 0.505 | Mean Fraction Affected/Fraction Unaffected (Fa/Fu) (huCBE11 2 mg/kg, Day 34): 1.020 | Mean Tumor Volume (huCBE11 2 mg/kg, Day 34): 519.9 cubic mm | Mean Tumor Volume Decrease (huCBE11 2 mg/kg, Day 34): 530.4 cubic mm | Mean Fraction Affected (Fa) (huCBE11 2 mg/kg, Day 37): 0.520 | Mean Fraction Affected/Fraction Unaffected (Fa/Fu) (huCBE11 2 mg/kg, Day 37): 1.082 | Mean Tumor Volume (huCBE11 2 mg/kg, Day 37): 580.1 cubic mm | Mean Tumor Volume Decrease (huCBE11 2 mg/kg, Day 37): 627.9 cubic mm | Mean Fraction Affected (Fa) (huCBE11 2 mg/kg, Day 41): 0.567 | Mean Fraction Affected/Fraction Unaffected (Fa/Fu) (huCBE11 2 mg/kg, Day 41): 1.310 | Mean Tumor Volume (huCBE11 2 mg/kg, Day 41): 623.2 cubic mm | Mean Tumor Volume Decrease (huCBE11 2 mg/kg, Day 41): 816.2 cubic mm | Mean Fraction Affected (Fa) (huCBE11 2 mg/kg, Day 43): 0.588 | Mean Fraction Affected/Fraction Unaffected (Fa/Fu) (huCBE11 2 mg/kg, Day 43): 1.424 | Mean Tumor Volume (huCBE11 2 mg/kg, Day 43): 662.7 cubic mm | Mean Tumor Volume Decrease (huCBE11 2 mg/kg, Day 43): 944.0 cubic mm | Tumor growth vs vehicle control (huCBE11 4 mg/kg and 2 mg/kg, Days 20-55, separate study): significantly decreased | Mean Fraction Affected (Fa) (huCBE11 4 mg/kg, Day 9): −0.125 | Mean Fraction Affected/Fraction Unaffected (Fa/Fu) (huCBE11 4 mg/kg, Day 9): −0.111 | Mean Tumor Volume (huCBE11 4 mg/kg, Day 9): 125.8 cubic mm | Mean Tumor Volume Decrease (huCBE11 4 mg/kg, Day 9): −14.0 cubic mm | Mean Fraction Affected (Fa) (huCBE11 4 mg/kg, Day 13): −0.048 | Mean Fraction Affected/Fraction Unaffected (Fa/Fu) (huCBE11 4 mg/kg, Day 13): −0.046 | Mean Tumor Volume (huCBE11 4 mg/kg, Day 13): 180.9 cubic mm | Mean Tumor Volume Decrease (huCBE11 4 mg/kg, Day 13): −8.3 cubic mm | Mean Fraction Affected/Fraction Unaffected (Fa/Fu) (huCBE11 4 mg/kg, Day 16): 0.070 | Mean Tumor Volume (huCBE11 4 mg/kg, Day 16): 247.6 cubic mm | Mean Tumor Volume Decrease (huCBE11 4 mg/kg, Day 16): 17.4 cubic mm | Mean Fraction Affected (Fa) (huCBE11 4 mg/kg, Day 20): 0.307 | Mean Fraction Affected/Fraction Unaffected (Fa/Fu) (huCBE11 4 mg/kg, Day 20): 0.442 | Mean Tumor Volume (huCBE11 4 mg/kg, Day 20): 278.0 cubic mm | Mean Tumor Volume Decrease (huCBE11 4 mg/kg, Day 20): 123.0 cubic mm | Mean Fraction Affected (Fa) (huCBE11 4 mg/kg, Day 23): 0.347 | Mean Fraction Affected/Fraction Unaffected (Fa/Fu) (huCBE11 4 mg/kg, Day 23): 0.531 | Mean Tumor Volume (huCBE11 4 mg/kg, Day 23): 344.3 cubic mm | Mean Tumor Volume Decrease (huCBE11 4 mg/kg, Day 23): 182.9 cubic mm | Mean Fraction Affected (Fa) (huCBE11 4 mg/kg, Day 27): 0.423 | Mean Fraction Affected/Fraction Unaffected (Fa/Fu) (huCBE11 4 mg/kg, Day 27): 0.733 | Mean Tumor Volume (huCBE11 4 mg/kg, Day 27): 385.8 cubic mm | Mean Tumor Volume Decrease (huCBE11 4 mg/kg, Day 27): 282.8 cubic mm | Mean Fraction Affected (Fa) (huCBE11 4 mg/kg, Day 30): 0.412 | Mean Fraction Affected/Fraction Unaffected (Fa/Fu) (huCBE11 4 mg/kg, Day 30): 0.700 | Mean Tumor Volume (huCBE11 4 mg/kg, Day 30): 480.1 cubic mm | Mean Tumor Volume Decrease (huCBE11 4 mg/kg, Day 30): 336.1 cubic mm | Mean Fraction Affected (Fa) (huCBE11 4 mg/kg, Day 34): 0.468 | Mean Fraction Affected/Fraction Unaffected (Fa/Fu) (huCBE11 4 mg/kg, Day 34): 0.879 | Mean Tumor Volume (huCBE11 4 mg/kg, Day 34): 558.9 cubic mm | Mean Tumor Volume Decrease (huCBE11 4 mg/kg, Day 34): 491.4 cubic mm | Mean Fraction Affected (Fa) (huCBE11 4 mg/kg, Day 37): 0.511 | Mean Fraction Affected/Fraction Unaffected (Fa/Fu) (huCBE11 4 mg/kg, Day 37): 1.044 | Mean Tumor Volume (huCBE11 4 mg/kg, Day 37): 591.1 cubic mm | Mean Tumor Volume Decrease (huCBE11 4 mg/kg, Day 37): 616.9 cubic mm | Mean Fraction Affected (Fa) (huCBE11 4 mg/kg, Day 41): 0.512 | Mean Fraction Affected/Fraction Unaffected (Fa/Fu) (huCBE11 4 mg/kg, Day 41): 1.050 | Mean Tumor Volume (huCBE11 4 mg/kg, Day 41): 702.0 cubic mm | Mean Tumor Volume Decrease (huCBE11 4 mg/kg, Day 41): 737.4 cubic mm | Mean Fraction Affected (Fa) (huCBE11 4 mg/kg, Day 43): 0.518 | Mean Fraction Affected/Fraction Unaffected (Fa/Fu) (huCBE11 4 mg/kg, Day 43): 1.073 | Mean Tumor Volume (huCBE11 4 mg/kg, Day 43): 775.1 cubic mm | Mean Tumor Volume Decrease (huCBE11 4 mg/kg, Day 43): 831.6 cubic mm | Inhibition of tumor growth vs vehicle control (huCBE11 20 mg/kg Days 16 through 55, 2 mg/kg Days 16 through 55, 0.2 mg/kg Days 20 through 55, separate study): significant inhibition of tumor growth | Mean Fraction Affected (Fa) (huCBE11 20 mg/kg alone, Day 9): 0.053 | Mean Fraction Affected (Fa) (huCBE11 20 mg/kg alone, Day 13, 20 mg/kg): 0.087 and 0.086 | Mean Fraction Affected (Fa) (huCBE11 20 mg/kg alone, Day 16, 20 mg/kg): 0.263 and 0.264 | Mean Fraction Affected (Fa) (huCBE11 20 mg/kg alone, Day 20): 0.435 | Mean Fraction Affected (Fa) (huCBE11 20 mg/kg alone, Day 23): 0.504 | Mean Fraction Affected (Fa) (huCBE11 20 mg/kg alone, Day 27): 0.576 | Mean Fraction Affected (Fa) (huCBE11 20 mg/kg alone, Day 30): 0.539 | Mean Fraction Affected (Fa) (huCBE11 20 mg/kg alone, Day 34): 0.543 | Mean Fraction Affected (Fa) (huCBE11 20 mg/kg alone, Day 37): 0.525 | Mean Fraction Affected (Fa) (huCBE11 20 mg/kg alone, Day 41): 0.538 | % T/C (huCBE11 20 mg/kg, Day 27 (lowest observed)): 42.4% | Activity by NCI criteria (% T/C at or below 42) (huCBE11, studies of the Camptosar example): inactive | Activity by NCI criteria (% T/C of 42 or less) (huCBE11, studies of the gemcitabine example): active | % T/C (huCBE11 dose groups, throughout both studies (Camptosar example)): > 42%
